Publication PMC12119673, “Apoptotic cell death induced by copper (II), manganese (II) and silver (I) complexes containing bridging dicarboxylate and 1,10-phenanthroline ligands: one of the multi-modes of anticancer activity?” (Biometals, 2025)
Like-named read-outs stand apart in the source and are kept apart here.

Assays:
Assay type in all cases: cell-based, human
MCF-12A cells [1] = test: In vitro cytotoxicity assessment, alamar blue assay, 24-h exposure; settings: for Decrease in activity towards MCF-12A cells relative to MCF-7 cells (selectivity): IC50 MCF-12A vs IC50 MCF-7, 24 h
Procedure: The MCF-7 (human breast cancer) and MCF-12A (non-tumourigenic human breast) cell lines were obtained from the Technological University Dublin (TUDublin, City Campus) internal cell bank and commercially from the American Type Culture Collection (ATCC), respectively. Both cell lines were cultured using Dulbecco’s Modified Eagle Medium/Nutrient Mixture F-12 Ham (DMEM-F12) (Sigma, Ireland) (Cat# D6421) media. The MCF-7 media was supplemented with 10% Foetal Bovine Serum (Sigma, Ireland) (Cat# F7524) and 1% L-Glutamine (Sigma, Ireland) (Cat# 592020C). The MCF-12A media was supplemented with 5% Equine Serum (Sigma, Ireland) (Cat# H0146) 1.25% L-Glutamine (Sigma, Ireland) (Cat# 592020C), 20 ng/ml Human Epidermal Growth Factor (Thermo Fisher Scientific, Ireland) (Cat# PHG0313), 0.01 mg/ml insulin (Thermo Fisher Scientific, Ireland)(Cat# 12585014) and 500 ng/ml hydrocortisone (Sigma, Ireland) (Cat# H0888). The cells were grown in T75 culture flasks (Sarstedt, Germany) (Cat# 83.3911.002) and were incubated in a 5% CO2 atmosphere at 37 ℃. The cells were monitored daily, and once 80–90% confluence was reached, they were subcultured with an enzymatic dissociation method using trypsin. Both cell lines were routinely subcultured for 1 week prior to beginning experimental work, to ensure the cells had adapted to the environment.
The MCF-7 and MCF-12A cells were seeded at a density of 1 × 10^4 in 96-well flat bottom plates (Sarstedt, Germany) (Cat# 83.3924) and incubated in a 5% CO2 atmosphere at 37 ℃ for 24 h prior to exposure to the complexes. Following the incubation period, the media was removed, and cells were washed with sterile phosphate-buffered saline (PBS). […] All agents were diluted in supplemented cell culture media, and the cells were exposed to a concentration range of 0.5 μM–100 μM for 24 h in the conditions outlined previously. Following the exposure period, the drug-containing media was removed, and cells were washed three times with PBS, ensuring complete removal of the test agents. A 5% working solution of Alamar Blue (Thermo Fisher Scientific, Ireland) (Cat# DAL1100) was prepared in dark conditions using unsupplemented cell culture media. 100 μl of the solution was added to each well, and the cells were incubated for 3 h. Following incubation, absorbance values were obtained using a Varioskan Lux (Thermo Scientific, USA) at 570 nm and 600 nm wavelengths. Each exposure was carried out in triplicate plates and was repeated three independent times.
The software packages Microsoft^Ⓡ Excel (USA) and GraphPad Prism (Ver. 10.0.3) (GraphPad, USA) were used to analyse the alamar blue data. The treated sample values were first normalised to the negative control values. After normalisation, the mean and standard deviations (SD) were established using Microsoft^Ⓡ Excel. The statistical analysis package GraphPad was then used to determine the IC25 and IC50 concentrations. […] A p value of 0.05 or lower is considered to be statistically significant.

MCF-7 cells [2] = test: Detection of reactive oxygen species with H2DCFDA; settings: MCF-7, 0.78 μM to 50 μM, over a 6-h period, fold-change compared to the negative control
Procedure: The production of reactive oxygen species (ROS) was detected in MCF-7 and MCF12A cells using the cell-permeant dye 2',7'- dichlorodihydrofluorescein diacetate (H2DCFDA) (Thermo Fisher Scientific, Ireland) (Cat# D399). Cells were seeded at a density of 1 × 10^4 in 96 well plates and incubated for 24 h. Post-incubation, the media was removed, and cells were washed with PBS. A 10 μM DCFH-DA working solution was prepared using cell culture media, and the cells were incubated with 100 μl of the solution in the dark for 30 min. […] Fluorescent measurements were recorded at 15 min, 30 min, 1 h, and subsequently every hour up to 6 h using a Varioskan Lux™ multimode microplate reader (Thermo Fisher Scientific, Ireland) at an excitation wavelength of 495 nm and emission of 527 nm. The assay was repeated three independent times, using three replicates per plate.
The cells were treated with a concentration range from 0.78 μM to 50 μM, and the response was measured over a 6-h period. This facilitated the evaluation of whether there was a time and/or concentration dependent response from the cells. Hydrogen peroxide (H2O2) was used as a positive control. ROS production is presented as fold-change compared to the negative control.

MCF-12A cells [3] = test: Apoptosis induction, Annexin V / propidium iodide flow cytometry; settings: IC25 concentration, 24 h
Procedure: (§1) MCF-7 and MCF-12A cells were seeded at a density of 1 × 10^5 in T25 flasks (Sarstedt, Germany) and incubated for 24 h at 37 °C with 5% CO2 allowing for attachment. Post -incubation, the media was removed, cells were washed with sterile PBS and then treated using IC25 concentrations established from the in vitro cytotoxicity screen. […] After the exposure period, the cells were enzymatically detached using trypsin, collected and centrifuged at 1200RPM for 10 min. The cells were then washed with PBS, re-centrifuged and resuspended in 1 ml of annexin binding buffer. Prior to staining, the concentration of each sample was adjusted to 1 × 10^6 cells/ml. The cells were stained with 1 μl of propidium iodide (PI) (Sigma, Ireland) (Cat #P4864) and 2 μl of Annexin V (Thermo Fisher Scientific, Ireland) (Cat #A13199). The cells were incubated at room temperature for 15 min prior to analysis. The staining process was completed in the dark to eliminate interference with photo-sensitive reagents. Immediately prior to analysis by flow cytometry, 400 μl of annexin binding buffer was added to each sample. Samples were analysed using a (CytoFLEX) (Beckman Coulter, USA). The AV/PI assay was completed three independent times.
(§2) Flow cytometry data analysis was performed with the CytExpert package (Ver. 2.4) (Beckman Coulter, USA) and Microsoft^Ⓡ Excel (USA). The mean MFI and percentage cells were calculated using these packages, followed by one-way ANOVA analysis with post hoc Bonferroni correction using GraphPad Prism (Ver. 9.4) (GraphPad, USA).
(§3) The induction of apoptosis was analysed in MCF-7 and MCF-12A cells using the Annexin V and Propidium Iodide assay with flow cytometry. […] The assay allows for the differentiation of viable, apoptotic and necrotic cells based on the selective staining of Annexin V and PI. Annexin V binds to phosphatidylserines externalised to the outer leaflet of the plasma membrane during apoptosis; and PI is a membrane impermeable dye that binds to DNA of necrotic cells with compromised plasma membranes.

MCF-7 cells [4] = test: as above; settings: MCF-7, IC25 concentration, 24 h
Procedure: as §1, §2, §3

[5] = MCF-12A, 24-h exposure, 25% reduction in metabolic activity, mean ± SD (N = 3)
[6] = MCF-12A, 24-hour exposure, per one metal centre, mean ± S.D. (N=3)
[7] = MCF-12A, 24-hour exposure, per one metal centre, mean ± S.D. (N=3), read-out: IC50 calculated per one metal centre

Compound | Cytotoxic activity IC25 ± SD (MCF-12A cells [1]; [5]) [µM] | IC25 calculated per one metal centre (MCF-12A cells [1]; [6]) [µM] | IC50 (MCF-12A cells [1]; [7]) [µM] | ROS production (MCF-7 cells [2]) | Apoptotic population (% cells) (MCF-12A cells [3]) | Necrotic population (% cells) (MCF-12A cells [3]) | Decrease in activity towards MCF-12A cells relative to MCF-7 cells (selectivity) (MCF-12A cells [1]; listed as 7) | Decrease in activity towards MCF-12A cells relative to MCF-7 cells (selectivity) (MCF-12A cells [1]; listed as complex 7) | IC50 (MCF-12A cells [1]; MCF-12A, 24-h exposure, 50% reduction in metabolic activity, mean ± SD (N = 3), read-out: Cytotoxic activity IC50 ± SD) [µM] | Necrotic population (% cells) (MCF-7 cells [4]) | IC50 (MCF-12A cells [1]; Homo sapiens, MCF-12A, 24 h, read-out: IC50 calculated per one metal centre) [µM] | Cytotoxic activity IC25 ± SD (MCF-12A cells [1]) [µM] | IC50 (MCF-12A cells [1]) [µM]
O=C([O-])CCCCCCC(=O)[O-].[Cu+2].c1cnc2c(c1)ccc1cccnc12.c1cnc2c(c1)ccc1cccnc12 [Complex 2, [Cu(oda)(phen)2]] | 0.68 ± 0.13 | 0.68 ± 0.13 | 1.65 ± 0.13 | moderate production of ROS |  |  |  |  |  |  |  |  | 
O=C([O-])CCCCCCC(=O)[O-].[Ag+].[Ag+].c1cnc2c(c1)ccc1cccnc12.c1cnc2c(c1)ccc1cccnc12.c1cnc2c(c1)ccc1cccnc12 [Complex 4, [Ag2(oda)(phen)3]] | 4.91 ± 0.14 | 9.82 ± 0.28 |  | lowest production | significant decrease in apoptotic cells | virtually no necrotic population |  |  |  |  |  |  | 
{[Mn2(oda)3(phen)4]^2−[Mn2(oda)(phen)4 (H2O)2]^2+} [Complex 7] | 0.38 ± 0.39 | 1.52 ± 1.56 | 104 ± 30.8 | potent inducer of ROS, eliciting the highest production in MCF-7 cells | significantly diminished apoptotic population | no necrosis observed | almost tenfold reduction in cytotoxicity | almost tenfold decrease in activity | 26.1 ± 7.7 | necrotic population also observed |  |  | 
O=C([O-])CCCCCCCCCC(=O)[O-].[Ag+].[Ag+].c1cnc2c(c1)ccc1cccnc12.c1cnc2c(c1)ccc1cccnc12.c1cnc2c(c1)ccc1cccnc12 [Complex 5, [Ag2(udda)(phen)3]] | 5.52 ± 0.51 | 11.04 ± 1.0 |  | lowest production | same level of apoptosis | no necrotic population was observed |  |  |  | significant population |  |  | 
c1cnc2c(c1)ccc1cccnc12 [Phen, 1,10-Phenanthroline] | 11.14 ± 4.39 | 11.14 ± 4.39 |  |  |  |  |  |  |  |  | 20.9 ± 1.96 |  | 
O=C([O-])CCCCCCC(=O)[O-].[Cu+2].[Cu+2].[O-][Cl+3]([O-])([O-])[O-].[O-][Cl+3]([O-])([O-])[O-].c1cnc2c(c1)ccc1cccnc12.c1cnc2c(c1)ccc1cccnc12.c1cnc2c(c1)ccc1cccnc12.c1cnc2c(c1)ccc1cccnc12 [Complex 1, [Cu2(oda)(phen)4](ClO4)2] |  | 9.72 ± 3.82 | 12.3 ± 0.74 | moderate production of ROS |  |  |  |  |  |  |  | 4.86 ± 1.91 | 6.14 ± 0.37
